Values of other authors, collected in US20150164065A1, “ORGAN ARREST, PROTECTION, PRESERVATION AND RECOVERY” (priority 2002, published 2015).

Tests used:
[1] = biological target: human NK(1) receptor (Homo sapiens, UniProt P25103)
[2] = biological target: T1, NK(2) receptor (Homo sapiens, UniProt P21452); details: relative to NK(1) receptor
T1 sequence (P21452 1-398): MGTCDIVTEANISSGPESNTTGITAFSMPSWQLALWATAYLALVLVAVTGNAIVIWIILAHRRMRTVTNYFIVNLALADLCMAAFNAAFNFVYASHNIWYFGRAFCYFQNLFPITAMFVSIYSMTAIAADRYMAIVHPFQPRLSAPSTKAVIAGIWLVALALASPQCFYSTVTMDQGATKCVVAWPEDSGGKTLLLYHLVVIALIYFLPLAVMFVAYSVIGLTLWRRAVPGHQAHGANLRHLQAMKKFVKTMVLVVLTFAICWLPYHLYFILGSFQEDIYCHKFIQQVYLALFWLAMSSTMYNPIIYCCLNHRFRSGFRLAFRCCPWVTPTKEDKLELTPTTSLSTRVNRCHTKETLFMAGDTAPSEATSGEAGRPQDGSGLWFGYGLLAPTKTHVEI

[3] = biological target: T2, NK(3) receptor (Homo sapiens, UniProt P29371); details: relative to NK(1) receptor
T2 sequence (P29371 1-465): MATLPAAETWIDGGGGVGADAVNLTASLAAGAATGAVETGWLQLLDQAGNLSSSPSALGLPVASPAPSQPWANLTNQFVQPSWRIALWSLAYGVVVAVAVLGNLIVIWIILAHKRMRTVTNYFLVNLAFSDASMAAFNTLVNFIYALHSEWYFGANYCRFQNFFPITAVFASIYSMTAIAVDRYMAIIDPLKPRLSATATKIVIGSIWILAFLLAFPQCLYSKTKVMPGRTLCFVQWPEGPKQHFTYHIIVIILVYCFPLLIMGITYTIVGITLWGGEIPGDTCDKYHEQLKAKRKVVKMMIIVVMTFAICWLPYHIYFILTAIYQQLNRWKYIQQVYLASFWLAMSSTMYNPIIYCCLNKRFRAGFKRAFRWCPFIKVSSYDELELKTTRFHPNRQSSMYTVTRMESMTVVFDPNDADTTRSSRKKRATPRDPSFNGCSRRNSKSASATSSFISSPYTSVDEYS

[4] = system: isolated brain slices

Sequence of human NK(1) receptor (P25103 whole entry): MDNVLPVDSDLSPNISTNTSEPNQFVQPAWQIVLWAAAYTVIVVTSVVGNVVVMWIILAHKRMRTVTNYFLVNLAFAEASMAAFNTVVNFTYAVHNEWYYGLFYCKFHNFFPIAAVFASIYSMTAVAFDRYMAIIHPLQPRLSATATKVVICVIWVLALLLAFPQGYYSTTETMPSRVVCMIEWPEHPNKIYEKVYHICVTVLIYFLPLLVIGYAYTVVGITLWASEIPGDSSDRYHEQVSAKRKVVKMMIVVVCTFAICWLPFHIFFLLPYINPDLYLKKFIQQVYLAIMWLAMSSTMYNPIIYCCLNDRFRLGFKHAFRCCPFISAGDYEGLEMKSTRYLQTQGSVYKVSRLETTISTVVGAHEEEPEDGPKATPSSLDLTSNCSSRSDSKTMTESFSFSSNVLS

Ki [1] [nM] | selectivity toward NK(2) receptor [2] | selectivity toward NK(3) receptor [3] | Structure (SMILES) | ischemia-induced cell swelling [4]
0.45 | over 200 fold | over 200 fold | Cc1cccc(C)c1NC(=O)C[C@H]1CCN(C(=O)c2cc(C(F)(F)F)cc(C(F)(F)F)c2)[C@@H](Cc2ccccc2)C1.O=C(O)C[C@H](O)C(=O)O (relative stereo) [Example R116301, (2R-trans)-4-[1-[3,5-bis(trifluoromethyl)benzoyl]-2-(phenylmethyl)-4-piperidinyl]-N-(2,6-dimethylphenyl)-1-acetamide (S)-Hydroxybutanedioate] | 
 |  |  | Cc1c(C)c2c(c(C)c1O)CC[C@](C)(C(=O)O)O2 [Trolox(R)] | reduction of cell swelling
 |  |  | CNC(=S)NC [dimethylthiourea] | reduction of cell swelling
 |  |  | CC1(C)CC(O)CC(C)(C)N1[O] [tempol(R)] | reduction of cell swelling
